The values below come from paper PMC10177262, “A Novel CD206 Targeting Peptide Inhibits Bleomycin-Induced Pulmonary Fibrosis in Mice” (Cells, 2023).

“Also recorded” adds a separate entry of the source. No end group written: not given here.

The subject of data set [1] is M2-polarized bone marrow-derived macrophages (BMDM). It is filed as cell-based, murine (C57BL/6 mice). As to conditions: 48 h. As for the experimental part: (§1) BMDM cells were isolated as described previously. Briefly, murine monocyte precursor cells were obtained by flushing out the bone marrow from the femur bones of 6–8-week-old healthy C57BL/6 mice. These precursor cells were then differentiated into M1 macrophages using 20 ng/mL of M-CSF and 20 ng/mL of IFN-γ and into M2 macrophages using 20 ng/mL of M-CSF and 20 ng/mL of IL-4 [29]. Human fetal lung fibroblast cell lines MRC5, IMR90, and IMR9 were purchased from the American Type Culture Collection (ATCC, Manassas, VA, USA) and were cultured according to ATCC protocols.
(§2) Cell viability dose-response curves were determined using the Live/Dead Viability/Cytotoxicity Kit (Thermo Fisher Scientific, Waltham, MA, USA, Cat# L3224) using the manufacturer’s protocol. Macrophages were seeded onto glass-bottom 96-well plates and polarized into M1 or M2 populations. Cells were treated with different concentrations of RP-832c for 48 h. After drug treatment, a 100 μL mixture of 2 μM calcein-AM and 4 μM ethidium homodimer was added and incubated for 1 h. The images were taken and analyzed as described in the immunofluorescence assay section below. A total of 200 cells were counted manually from three different random 20× regions across three technical replicates, and the percentage of alive cells was calculated using GraphPad Prism version 8.0. […]

For data set [2], the system named is M1-polarized bone marrow-derived macrophages (BMDM). Put plainly: Live/Dead cell viability assay, M1 macrophages. Type of data set: cell-based, murine (C57BL/6 mice). As to conditions: 48 h, 0–100 μM. The method, then:
as §1, §2

The test system of data set [3] is MRC5 human fetal lung fibroblast cell line. Nature of the data set: Cytotoxicity in lung fibroblasts MRC5. Type of data set: cell-based. The method, then: (§3) The RP-832c (RWKFGGFKWR) peptide was synthesized by PolyPeptide Laboratories, San Diego, CA, USA. BMDM cells were isolated and polarized as described previously. The cell viability of RP-832c-treated macrophages was determined using the live/dead viability assay as previously described. Human fetal lung fibroblast cell lines MRC5, IMR90, and IMR9 were purchased from the American Type Culture Collection (ATCC, Manassas, VA, USA) and were cultured according to ATCC protocols.
(§4) BMDM cells were isolated as described previously. Briefly, murine monocyte precursor cells were obtained by flushing out the bone marrow from the femur bones of 6–8-week-old healthy C57BL/6 mice. These precursor cells were then differentiated into M1 macrophages using 20 ng/mL of M-CSF and 20 ng/mL of IFN-γ and into M2 macrophages using 20 ng/mL of M-CSF and 20 ng/mL of IL-4 [29]. […]
(§5) Cell viability dose-response curves were determined using the Live/Dead Viability/Cytotoxicity Kit (Thermo Fisher Scientific, Waltham, MA, USA, Cat# L3224) using the manufacturer’s protocol. […] The images were taken and analyzed as described in the immunofluorescence assay section below. A total of 200 cells were counted manually from three different random 20× regions across three technical replicates, and the percentage of alive cells was calculated using GraphPad Prism version 8.0. […]

In data set [4] the test system is IMR9 human fetal lung fibroblast cell line. Nature of the data set: Cytotoxicity in lung fibroblasts IMR9 / IMR91. Type of data set: cell-based. As to conditions: 1μM - 100μM; three independent experiments in triplicate. The method, then: as §3, §4, §5
For data set [5] the following is noted: matrix and method not stated; no reference given; cited from earlier work. The source says:
It is evident from various studies that macrophages are indispensable in tissue repair and subsequent fibrotic changes. […] M1 macrophages initiate host defense responses against pathogens by generating reactive nitric oxide (NO) via inducible nitric oxide synthase (iNOS), and by releasing proinflammatory cytokines and chemokines such as IL-1β, IL-12, IL-23, CCL2, and TNF-α. Meanwhile, M2 macrophages contribute to the pathogenesis of fibrosis ...

Data set [6] can be described thus: Toxicity study: body and organ weights, blood count, blood chemistry.
In another data set the test system is CD206 in lung tissue. Put plainly: IHC staining of CD206 in lungs of BLM-treated mice. As to conditions: n=3 mice; vs naïve. It is filed as in vivo, mouse. The method, then: At the end of the study, the mice were sacrificed using CO2 followed by cervical dislocation (according to IACUC guidelines), and the lungs were collected and fixed in 10% formalin. After 48 h of fixation, the lungs were processed into tissue sections. The tissue sections were stained with both Hematoxylin/Eosin (H&E) (Sigma Aldrich, Burlington, MA, USA) and Masson Trichrome (Abcam, Waltham, MA, USA). Immunostaining was performed with the anti-CD206 (AF2535, 5 ug/mL, R&D Biosciences), TGF-β1 (MAB1835, 10 ug/mL, R&D Biosciences), and α-SMA (MAB1420, 10 ug/mL, R&D Biosciences, Minneapolis, MN, USA) antibodies as previously described. All slides were scanned using a Leica Aperio SC2 scanner and blindly evaluated by two independent pathologists. A total of 10 representative fields of 20× IHC images per tissue section were individually analyzed for the total number of cells/area using a confocal microscope (Olympus, New York, NY, USA). All quantitative data were normalized to appropriate control images.
We first sought to perform in silico validation of CD206 expression at various time points in both bleomycin-treated rat (GSE48455) and mouse models (GSE40151). […] Thus, the BLM model appears to be an appropriate model to determine the role of CD206 in lung fibrosis. […]
by different concentrations (0μM - 100μM) of RP-832c. […]

Data set [7] has as its target T1, CD206 (macrophage mannose receptor) (UniProt P22897).
T1 chain: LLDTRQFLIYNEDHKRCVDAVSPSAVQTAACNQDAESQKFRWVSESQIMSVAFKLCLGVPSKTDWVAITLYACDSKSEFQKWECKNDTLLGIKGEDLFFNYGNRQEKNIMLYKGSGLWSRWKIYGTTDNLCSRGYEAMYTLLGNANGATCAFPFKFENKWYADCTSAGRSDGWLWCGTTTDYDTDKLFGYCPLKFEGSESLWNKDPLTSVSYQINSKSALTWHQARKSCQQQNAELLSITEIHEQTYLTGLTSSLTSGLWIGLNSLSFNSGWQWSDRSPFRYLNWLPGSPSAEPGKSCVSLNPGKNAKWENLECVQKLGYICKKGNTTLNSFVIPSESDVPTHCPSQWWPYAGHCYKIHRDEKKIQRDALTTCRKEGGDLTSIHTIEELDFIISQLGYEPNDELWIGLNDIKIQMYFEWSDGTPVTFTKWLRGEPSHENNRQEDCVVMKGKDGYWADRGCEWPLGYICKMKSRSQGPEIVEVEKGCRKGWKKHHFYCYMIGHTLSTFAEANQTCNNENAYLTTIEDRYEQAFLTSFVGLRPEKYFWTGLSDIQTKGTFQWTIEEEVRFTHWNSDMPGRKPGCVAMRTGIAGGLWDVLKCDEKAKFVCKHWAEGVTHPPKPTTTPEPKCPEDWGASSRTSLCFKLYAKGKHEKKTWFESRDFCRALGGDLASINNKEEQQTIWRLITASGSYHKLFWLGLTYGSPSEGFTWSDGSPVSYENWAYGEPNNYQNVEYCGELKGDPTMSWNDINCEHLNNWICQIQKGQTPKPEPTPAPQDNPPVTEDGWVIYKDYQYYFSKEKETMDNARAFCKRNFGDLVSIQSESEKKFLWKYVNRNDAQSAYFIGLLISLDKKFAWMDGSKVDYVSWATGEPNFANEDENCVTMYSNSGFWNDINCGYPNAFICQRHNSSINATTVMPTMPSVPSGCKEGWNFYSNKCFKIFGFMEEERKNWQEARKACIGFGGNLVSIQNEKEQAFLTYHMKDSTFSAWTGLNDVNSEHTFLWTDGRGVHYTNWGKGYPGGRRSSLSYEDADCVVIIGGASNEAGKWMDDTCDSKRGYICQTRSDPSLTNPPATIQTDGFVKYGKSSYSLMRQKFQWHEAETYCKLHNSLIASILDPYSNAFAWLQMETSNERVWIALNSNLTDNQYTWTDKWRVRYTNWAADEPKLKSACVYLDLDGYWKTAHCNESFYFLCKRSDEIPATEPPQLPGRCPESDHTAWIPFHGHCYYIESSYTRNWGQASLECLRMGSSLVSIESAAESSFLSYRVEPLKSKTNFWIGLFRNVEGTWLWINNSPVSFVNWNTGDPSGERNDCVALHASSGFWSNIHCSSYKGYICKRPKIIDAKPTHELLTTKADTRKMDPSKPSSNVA
Put plainly: SPR. On the technique in general: Surface plasmon resonance follows binding to a sensor surface in real time, without labels.

In the case of RWKFGGFKWR [RP-832c], in data set [1], the IC50 (usually the concentration that inhibits the measured activity by half) was roughly 6 µM. In addition, the “cytotoxicity in M1 macrophages” value in data set [2] was “only minimal cytotoxicity”. Moreover, in data set [3] (1μM - 100μM, three independent experiments in triplicate), the “cytotoxicity against MRC5 fibroblasts” value is “did not show cytotoxicity; also recorded: lacking any cytotoxicity”. Moreover, the “proliferation of fibroblast cell lines” value in data set [3] (multiple fibroblast cell lines cultured in vitro) is “did not observe any significant effect on the proliferation of multiple fibroblast cell lines; also recorded: did not observe direct inhibitory effects on the fibroblast cell lines”. Also, in data set [4], the “cytotoxicity against IMR9 (IMR91) fibroblasts” value is recorded as “did not show cytotoxicity; also recorded: lacking any cytotoxicity”. Further, in data set [5], the “half-life compared to RP-182” value is reported as “increased half-life compared to RP-182” and the “stability compared to RP-182” value is “enhanced stability”. For the same molecule, the “AST, Mean Difference” value in data set [6] (50 mg/kg vs saline, p 0.1237) was −48.8. Besides, the “Phosphorus, Mean Difference” value in data set [6] (50 mg/kg vs saline, p 0.2623) was -1.1 mg/dL. In addition, the “BUN, Mean Difference” value in data set [6] (50 mg/kg vs saline, p 0.3087) is given as 1.6 mg/dL. For the same molecule, the “Albumin, Mean Difference” value in data set [6] (50 mg/kg vs saline, p 0.3982) is listed as 0.2 g/dL. For the same molecule, in data set [6] (50 mg/kg vs saline, p 0.4413), the “Globulin, Mean Difference” value amounted to 0.1 g/dL. Also, the “Total Protein, Mean Difference” value in data set [6] (50 mg/kg vs saline, p 0.5797) is reported as 0.3 g/dL. The “Creatinine, Mean Difference” value in data set [6] (50 mg/kg vs saline, p not given) amounted to 0.0 mg/dL. Besides, the body weight result in data set [6] (50mg/kg, CD1 mice, vs vehicle) is “did not have any significant effect on body weight”. In data set [6] (50 mg/kg, n = 10, saline n = 5: 0.2 ± 0), the Creatinine was 0.2 ± 0 mg/dL. The same molecule returned a Globulin in data set [6] (50 mg/kg, n = 10, saline n = 5: 2.6 ± 0.5) of 2.7 ± 0.2 g/dL. In data set [6] (50 mg/kg, n = 10, saline n = 5: 2.9 ± 0.3), this molecule displayed an Albumin of 3.1 ± 0.3 g/dL. Besides, the “Total Protein” value in data set [6] (50 mg/kg, n = 10, saline n = 5: 5.6 ± 0.8) is given as 5.9 ± 0.5 g/dL. Also, the Phosphorus in data set [6] (50 mg/kg, n = 10, saline n = 5: 8.8 ± 2.4) was found to be 7.7 ± 0.5 mg/dL. The same molecule registered a BUN in data set [6] (50 mg/kg, n = 10, saline n = 5: 22.4 ± 3.4) of 24.0 ± 4.3 mg/dL. In data set [6] (50 mg/kg, n = 10, saline n = 5: 35.8 ± 18.9), this molecule showed an ALT of 27.2 ± 10 U/L. The AST in data set [6] (50 mg/kg, n = 10, saline n = 5: 140.0 ± 75.5) came out at 91.2 ± 21.7 U/L. For the same molecule, in data set [6] (50 mg/kg, vs vehicle), the “body weight, organ weights, complete blood count and blood chemistry” value was “no apparent toxicities observed; also recorded: No significant differences were observed”; the “complete blood cell count” value is reported as “does not significantly affect the complete blood cell count”; the organ weights entry was “lacks any significant”.

As to bleomycin, in the data set with CD206 in lung tissue, the “CD206 expression in lungs of BLM-treated mice (IHC)” value was “upregulated”.

Consider RWKFGGFKWR [RP-832c], for which the Kd – broadly, the free concentration of one partner at which half of the binding sites on the other are occupied at equilibrium, for simple one-to-one binding – in data set [7] was roughly 3.5 µM.
